Assay results published in patent publication US20200038338A1, “LONG TERM DRUG DELIVERY BY TATTOO” (priority 2018, published 2020).

Assays:
[1] = test system: basal cell carcinoma (BCC); test: Treatment of basal cell carcinoma: vismodegib delivered by tattoo machine
psoriatic plaques = test: Treatment of psoriasis: methotrexate delivered to the dermal layer by tattoo machine; format: in vivo; conditions: control: 25 mg/ml methotrexate by injection once a month for 9 months
[2] = test system: androgenetic alopecia (hair loss); conditions: minoxidil microinjections once a month for four months; cited from earlier work
[3] = test system: terminal hairs of beard or scalp (alopecia); test: Treatment of alopecia: minoxidil delivered to the dermis by tattoo machine; format: in vivo; conditions: 5 wt % minoxidil suspension in PEG 400 by tattoo to dermis, once every 2 months, after 6 months (3 sessions); versus control side with minoxidil in water to saturation; three subjects
Description: A suspension of minoxidil suspension at 5 wt % is created in a PEG 400 vehicle. As a control minoxidil is added to water to saturation. The test and control agents are delivered by tattoo machine to the dermis on independent sides of the face (either beard, eyebrow, or scalp) of the same subject once every 2 months for 6 months (i.e. 3 administrations). Three different subjects were tested. The side that was treated in the beard or scalp had approximately 300% more terminal (thick, strong) hairs per unit area, after 6 months (3 sessions).

Structure (SMILES): CS(=O)(=O)c1ccc(C(=O)Nc2ccc(Cl)c(-c3ccccn3)c2)c(Cl)c1 [vismodegib]
- side effects, control ([1]; control: vismodegib orally for 6 months): muscle tremors, loss of appetite, reduction of smell and taste
- BCCs resolved, control ([1]; control: vismodegib orally, first 6 months): 50%
- clearance of the BCC ([1]; vismodegib suspension with polyethylene glycol by tattoo machine, once a week for 6 months): 90%

Structure (SMILES): CN(Cc1cnc2nc(N)nc(N)c2n1)c1ccc(C(=O)N[C@@H](CCC(=O)O)C(=O)O)cc1 [methotrexate]
- side effects, control (psoriatic plaques): increased liver enzymes

Structure (SMILES): Nc1cc(N2CCCCC2)nc(N)[n+]1[O-] [minoxidil]
- side effects noted by the subjects [2]: No side effects were noted by the subjects, besides minor localized pain
- more terminal (thick, strong) hairs per unit area on the treated side [3]: approximately 300%
